System: symptoms of Parkinson's disease
Experiment: Application to parkinsonian patients for treating the symptoms of Parkinson's disease
Format: in vivo, human (parkinsonian patients)
Settings: compared within the anilide group of local anesthetics (lidocaine, bupivacaine, butanilicaine, etidocaine, tolycaine)
Description: The inventive use has the effect, upon application to parkinsonian patients, that the specific symptoms of Parkinson's disease clearly subside, the resulting improved condition of the patient continuing for several hours and even days. In particular, a clear improvement of disease-specific symptoms was obtained with the inventive use […] “local anesthetic of the anilide group” essential to the inventive use belongs in general to the local anesthetics of different structure, the local anesthetics of the anilide group and their derivatives being preferred for treatment as a subgroup of said local anesthetics. Examples of said subgroup are not only mepivacaine but also lidocaine, bupivacaine, butanilicaine, etidocaine and tolycaine. […] One supposition is that the small molecular size of mepivacaine provides an increased probability of crossing the blood-brain barrier. Mepivacaine is in addition lipophilic, i.e. lipid-loving, and tends to attach to fat molecules. It is remarkable in this connection that neurons are usually embedded in fat and an accumulation or concentration of mepivacaine in fat will presumably also have effects on the nervous pathways running through fatty tissue. Levodopa also has strong lipophilia, like mepivacaine, so that this connection might also provide a mechanism of action. […]

## Cc1cccc(C)c1NC(=O)C1CCCCN1C (stereo not shown) [mepivacaine]
  effectiveness in treating patients with Parkinson's disease: most effective
